What was measured:
Assay in all cases: Drought stress test on crop plants, spray application in greenhouse, visual damage rating
Format in all cases: in vivo
Details in all cases: mean of three results
[1] = system: Hordeum vulgare (HORVS)
Description: Seeds of monocotyledonous and dicotyledonous crop plants were placed in sandy loam in wood-fiber pots, covered with soil and cultivated in a greenhouse under good growth conditions. The test plants were treated at the early leaf stage (BBCH10-BBCH13). To ensure uniform water supply before commencement of stress, the potted plants were supplied with the maximum amount of water immediately beforehand by dam irrigation and, after application, transferred in plastic inserts in order to prevent subsequent, excessively rapid drying. The inventive compounds, formulated in the form of wettable powders (WP), wettable granules (WG), suspension concentrates (SC) or emulsion concentrates (EC), were sprayed onto the green parts of the plants as an aqueous suspension at an equivalent water application rate of 600 l/ha with addition of 0.2% wetting agent (agrotin). Substance application was followed immediately by stress treatment of the plants (cold or drought stress). For cold stress treatment, the plants were kept under the following controlled conditions: Drought stress was induced by gradual drying out under the following conditions: “day”: 14 hours with illumination at 26° C. “night”: 10 hours without illumination at 18° C. The duration of the respective stress phases was guided mainly by the state of the untreated, stressed control plants and thus varies from crop to crop. It was ended (by re-irrigating or transfer to a greenhouse with good growth conditions) as soon as irreversible damage is observed on the untreated, stressed control plants. In the case of dicotyledonous crops, for example oilseed rape and soya, the duration of the drought stress phase was between 3 and 5 days, in the case of monocotyledonous crops, for example wheat, barley or corn, between 6 and 10 days. The duration of the cold stress phase varied between 12 and 14 days. The end of the stress phase was followed by an approx. 5-7-day recovery phase, during which the plants were once again kept under good growth conditions in a greenhouse. In order to rule out any influence of the effects observed by any fungicidal action of the test compounds, it was additionally ensured that the tests proceed without fungal infection and without infection pressure. After the recovery phase had ended, the intensities of damage were rated visually compared to untreated, unstressed controls of the same age (in the case of drought stress) or the same growth stage (in the case of cold stress). The intensity of damage was first assessed as a percentage (100%=plants have died, 0%=like control plants). These values were then used to calculate the efficacy of the test compounds (=percentage reduction in the intensity of damage as a result of substance application) by the following formula: [formula] EF: efficacy (%) DVus: damage value of the untreated, stressed control DVts: damage value of the plants treated with test compound The tables below list mean values in each case from three results of the same test. Effects of selected compounds of the formula (I) under drought stress: HORVS=Hordeum vulgare

[2] = system: Triticum aestivum (TRZAS)
Description: Seeds of monocotyledonous and dicotyledonous crop plants were placed in sandy loam in wood-fiber pots, covered with soil and cultivated in a greenhouse under good growth conditions. The test plants were treated at the early leaf stage (BBCH10-BBCH13). To ensure uniform water supply before commencement of stress, the potted plants were supplied with the maximum amount of water immediately beforehand by dam irrigation and, after application, transferred in plastic inserts in order to prevent subsequent, excessively rapid drying. The inventive compounds, formulated in the form of wettable powders (WP), wettable granules (WG), suspension concentrates (SC) or emulsion concentrates (EC), were sprayed onto the green parts of the plants as an aqueous suspension at an equivalent water application rate of 600 l/ha with addition of 0.2% wetting agent (agrotin). Substance application was followed immediately by stress treatment of the plants (cold or drought stress). For cold stress treatment, the plants were kept under the following controlled conditions: Drought stress was induced by gradual drying out under the following conditions: “day”: 14 hours with illumination at 26° C. “night”: 10 hours without illumination at 18° C. The duration of the respective stress phases was guided mainly by the state of the untreated, stressed control plants and thus varies from crop to crop. It was ended (by re-irrigating or transfer to a greenhouse with good growth conditions) as soon as irreversible damage is observed on the untreated, stressed control plants. In the case of dicotyledonous crops, for example oilseed rape and soya, the duration of the drought stress phase was between 3 and 5 days, in the case of monocotyledonous crops, for example wheat, barley or corn, between 6 and 10 days. The duration of the cold stress phase varied between 12 and 14 days. The end of the stress phase was followed by an approx. 5-7-day recovery phase, during which the plants were once again kept under good growth conditions in a greenhouse. In order to rule out any influence of the effects observed by any fungicidal action of the test compounds, it was additionally ensured that the tests proceed without fungal infection and without infection pressure. After the recovery phase had ended, the intensities of damage were rated visually compared to untreated, unstressed controls of the same age (in the case of drought stress) or the same growth stage (in the case of cold stress). The intensity of damage was first assessed as a percentage (100%=plants have died, 0%=like control plants). These values were then used to calculate the efficacy of the test compounds (=percentage reduction in the intensity of damage as a result of substance application) by the following formula: [formula] EF: efficacy (%) DVus: damage value of the untreated, stressed control DVts: damage value of the plants treated with test compound The tables below list mean values in each case from three results of the same test. Effects of selected compounds of the formula (I) under drought stress: TRZAS=Triticum aestivum

[3] = system: Brassica napus (BRSNS)
Description: Seeds of monocotyledonous and dicotyledonous crop plants were placed in sandy loam in wood-fiber pots, covered with soil and cultivated in a greenhouse under good growth conditions. The test plants were treated at the early leaf stage (BBCH10-BBCH13). To ensure uniform water supply before commencement of stress, the potted plants were supplied with the maximum amount of water immediately beforehand by dam irrigation and, after application, transferred in plastic inserts in order to prevent subsequent, excessively rapid drying. The inventive compounds, formulated in the form of wettable powders (WP), wettable granules (WG), suspension concentrates (SC) or emulsion concentrates (EC), were sprayed onto the green parts of the plants as an aqueous suspension at an equivalent water application rate of 600 l/ha with addition of 0.2% wetting agent (agrotin). Substance application was followed immediately by stress treatment of the plants (cold or drought stress). For cold stress treatment, the plants were kept under the following controlled conditions: Drought stress was induced by gradual drying out under the following conditions: “day”: 14 hours with illumination at 26° C. “night”: 10 hours without illumination at 18° C. The duration of the respective stress phases was guided mainly by the state of the untreated, stressed control plants and thus varies from crop to crop. It was ended (by re-irrigating or transfer to a greenhouse with good growth conditions) as soon as irreversible damage is observed on the untreated, stressed control plants. In the case of dicotyledonous crops, for example oilseed rape and soya, the duration of the drought stress phase was between 3 and 5 days, in the case of monocotyledonous crops, for example wheat, barley or corn, between 6 and 10 days. The duration of the cold stress phase varied between 12 and 14 days. The end of the stress phase was followed by an approx. 5-7-day recovery phase, during which the plants were once again kept under good growth conditions in a greenhouse. In order to rule out any influence of the effects observed by any fungicidal action of the test compounds, it was additionally ensured that the tests proceed without fungal infection and without infection pressure. After the recovery phase had ended, the intensities of damage were rated visually compared to untreated, unstressed controls of the same age (in the case of drought stress) or the same growth stage (in the case of cold stress). The intensity of damage was first assessed as a percentage (100%=plants have died, 0%=like control plants). These values were then used to calculate the efficacy of the test compounds (=percentage reduction in the intensity of damage as a result of substance application) by the following formula: [formula] EF: efficacy (%) DVus: damage value of the untreated, stressed control DVts: damage value of the plants treated with test compound The tables below list mean values in each case from three results of the same test. Effects of selected compounds of the formula (I) under drought stress: BRSNS=Brassica napus

[4] = system: Zea mays (ZEAMX)
Description: Seeds of monocotyledonous and dicotyledonous crop plants were placed in sandy loam in wood-fiber pots, covered with soil and cultivated in a greenhouse under good growth conditions. The test plants were treated at the early leaf stage (BBCH10-BBCH13). To ensure uniform water supply before commencement of stress, the potted plants were supplied with the maximum amount of water immediately beforehand by dam irrigation and, after application, transferred in plastic inserts in order to prevent subsequent, excessively rapid drying. The inventive compounds, formulated in the form of wettable powders (WP), wettable granules (WG), suspension concentrates (SC) or emulsion concentrates (EC), were sprayed onto the green parts of the plants as an aqueous suspension at an equivalent water application rate of 600 l/ha with addition of 0.2% wetting agent (agrotin). Substance application was followed immediately by stress treatment of the plants (cold or drought stress). For cold stress treatment, the plants were kept under the following controlled conditions: Drought stress was induced by gradual drying out under the following conditions: “day”: 14 hours with illumination at 26° C. “night”: 10 hours without illumination at 18° C. The duration of the respective stress phases was guided mainly by the state of the untreated, stressed control plants and thus varies from crop to crop. It was ended (by re-irrigating or transfer to a greenhouse with good growth conditions) as soon as irreversible damage is observed on the untreated, stressed control plants. In the case of dicotyledonous crops, for example oilseed rape and soya, the duration of the drought stress phase was between 3 and 5 days, in the case of monocotyledonous crops, for example wheat, barley or corn, between 6 and 10 days. The duration of the cold stress phase varied between 12 and 14 days. The end of the stress phase was followed by an approx. 5-7-day recovery phase, during which the plants were once again kept under good growth conditions in a greenhouse. In order to rule out any influence of the effects observed by any fungicidal action of the test compounds, it was additionally ensured that the tests proceed without fungal infection and without infection pressure. After the recovery phase had ended, the intensities of damage were rated visually compared to untreated, unstressed controls of the same age (in the case of drought stress) or the same growth stage (in the case of cold stress). The intensity of damage was first assessed as a percentage (100%=plants have died, 0%=like control plants). These values were then used to calculate the efficacy of the test compounds (=percentage reduction in the intensity of damage as a result of substance application) by the following formula: [formula] EF: efficacy (%) DVus: damage value of the untreated, stressed control DVts: damage value of the plants treated with test compound The tables below list mean values in each case from three results of the same test. Effects of selected compounds of the formula (I) under drought stress: ZEAMX=Zea mays

Cc1cc(C(N)=O)c2nc(C(F)F)[nH]c2c1 [4-7]
EF (HORVS), efficacy = percentage reduction in the intensity of damage ([1]; 25 g/ha): >5%
EF (TRZAS), efficacy = percentage reduction in the intensity of damage ([2]; 25 g/ha): >5%
EF (BRSNS), efficacy = percentage reduction in the intensity of damage ([3]; 25 g/ha): >5%

CCCCS(CCCC)=NC(=O)c1cccc2[nH]c(C(F)(F)F)nc12 [1-5, N-(dibutyl-lambda^4-sulfanylidene)-2-(trifluoromethyl)-1H-benzimidazole-4-carboxamide]
EF (ZEAMX), efficacy = percentage reduction in the intensity of damage ([4]; 50 g/ha): >5%
EF (TRZAS), efficacy = percentage reduction in the intensity of damage ([2]; 250 g/ha): >5%
EF (BRSNS), efficacy = percentage reduction in the intensity of damage ([3]; 25 g/ha): >5%

COCCOC(F)(F)c1nc2c(C(N)=O)cccc2[nH]1 [1-52]
EF (ZEAMX), efficacy = percentage reduction in the intensity of damage ([4]; 25 g/ha): >5%
EF (TRZAS), efficacy = percentage reduction in the intensity of damage ([2]; 25 g/ha): >5%
EF (BRSNS), efficacy = percentage reduction in the intensity of damage ([3]; 25 g/ha): >5%

COC(F)(F)c1nc2c(C(N)=O)cccc2[nH]1 [1-6, 2-[difluoro(methoxy)methyl]-1H-benzimidazole-4-carboxamide]
EF (ZEAMX), efficacy = percentage reduction in the intensity of damage ([4]; 25 g/ha): >5%
EF (TRZAS), efficacy = percentage reduction in the intensity of damage ([2]; 25 g/ha): >5%
EF (BRSNS), efficacy = percentage reduction in the intensity of damage ([3]; 25 g/ha): >5%

CCCCOC(F)(F)c1nc2c(C(N)=O)cccc2[nH]1 [1-50]
EF (ZEAMX), efficacy = percentage reduction in the intensity of damage ([4]; 250 g/ha): >5%
EF (TRZAS), efficacy = percentage reduction in the intensity of damage ([2]; 250 g/ha): >5%
EF (BRSNS), efficacy = percentage reduction in the intensity of damage ([3]; 25 g/ha): >5%

Cn1c(C(F)(F)F)nc2c(C(N)=O)cccc21 [1-27]
EF (HORVS), efficacy = percentage reduction in the intensity of damage ([1]; 100 g/ha): >5%

NC(=O)c1cc(Cl)cc2[nH]c(C(F)F)nc12 [2-7]
EF (HORVS), efficacy = percentage reduction in the intensity of damage ([1]; 25 g/ha): >5%
EF (TRZAS), efficacy = percentage reduction in the intensity of damage ([2]; 25 g/ha): >5%
EF (BRSNS), efficacy = percentage reduction in the intensity of damage ([3]; 25 g/ha): >5%

NC(=O)c1cc(F)cc2[nH]c(C(F)C(F)(F)F)nc12 (stereo not drawn) [5-8]
EF (TRZAS), efficacy = percentage reduction in the intensity of damage ([2]; 25 g/ha): >5%
EF (BRSNS), efficacy = percentage reduction in the intensity of damage ([3]; 250 g/ha): >5%
